Drawing on the NIST ThermoML archive (doi:10.1016/j.fluid.2007.10.004), this text covers surface tension liquid-gas for two molecules.

Numbers after ± are expanded uncertainties.

The conditions of this series: Capillary rise.

By surface tension liquid-gas is commonly meant the work needed to enlarge the surface of a liquid by unit area. With `CCCCCCCC[n+]1ccn(C)c1.[Cl-]` [1-methyl-3-octylimidazolium chloride], the surface tension liquid-gas runs as follows: (298 K) 31.9 ± 1 mN/m; (303 K) 31.7 ± 1 mN/m; (308 K) 31.5 ± 1 mN/m; (313 K) 31.2 ± 1 mN/m; (318 K) 30.9 ± 1 mN/m; (323 K) 30.6 ± 1 mN/m. The surface tension liquid-gas (328 K) was determined as 30.3 ± 1 mN/m; the surface tension liquid-gas (333 K) came out at 30 ± 1 mN/m; the surface tension liquid-gas (338 K) came out at 29.7 ± 1 mN/m; the surface tension liquid-gas (343 K) came to 29.5 ± 1 mN/m; the surface tension liquid-gas (348 K) turned out to be 29.2 ± 1 mN/m; the surface tension liquid-gas (353 K) is reported as 28.9 ± 0.9 mN/m. Besides, the surface tension liquid-gas (358 K) turned out to be 28.7 ± 0.9 mN/m; the surface tension liquid-gas (363 K) worked out at 28.4 ± 0.9 mN/m; the surface tension liquid-gas (368 K) was found to be 28.2 ± 0.9 mN/m; the surface tension liquid-gas (373 K) is listed as 27.9 ± 0.9 mN/m; the surface tension liquid-gas (378 K) was determined as 27.6 ± 0.9 mN/m; the surface tension liquid-gas (383 K) is given as 27.4 ± 0.9 mN/m. Moreover, the surface tension liquid-gas turned out to be 27 ± 0.9 mN/m (388 K) and 26.7 ± 0.9 mN/m (393 K).
`CCCCCCCC[n+]1ccn(C)c1.F[B-](F)(F)F` [1-methyl-3-octylimidazolium tetrafluoroborate]: the surface tension liquid-gas is 30.7 ± 1 mN/m (298 K); 30.4 ± 1 mN/m (303 K); 30.1 ± 1 mN/m (308 K); 29.9 ± 1 mN/m (313 K); 29.6 ± 1 mN/m (318 K); 29.4 ± 1 mN/m (323 K). For the same molecule, the surface tension liquid-gas (328 K) amounted to 29.2 ± 1 mN/m; the surface tension liquid-gas (333 K) amounted to 28.9 ± 0.9 mN/m; the surface tension liquid-gas (338 K) amounted to 28.7 ± 0.9 mN/m; the surface tension liquid-gas (343 K) was 28.4 ± 0.9 mN/m; the surface tension liquid-gas (348 K) was 28.2 ± 0.9 mN/m; the surface tension liquid-gas (353 K) is on record as 27.9 ± 0.9 mN/m. Further, the surface tension liquid-gas stood at 27.7 ± 0.9 mN/m (358 K); 27.4 ± 0.9 mN/m (363 K); 27.2 ± 0.9 mN/m (368 K); 27 ± 0.9 mN/m (373 K); 26.7 ± 0.9 mN/m (378 K); 26.5 ± 0.9 mN/m (383 K). The surface tension liquid-gas is, setting by setting: (388 K) 26.3 ± 0.9 mN/m; (393 K) 26 ± 0.9 mN/m.
